Activity calls are given as the source filed them. No rule for the calls is given here.

TD50 and carcinogen call data for ten molecules are collected here from PubChem BioAssay AID1745844 (Carcinogenic Potency Database (CPDB), 2022).

This series deals with rodent lifetime carcinogenesis bioassay, tumor incidence TD50. Kind of series: chronic cancer bioassays in animals – CPDB, compiled studies (AID 1745844).

For `COC(=O)C1=C(C)NC(C)=C(C(=O)OCCN2CCN(C(c3ccccc3)c3ccccc3)CC2)C1c1cccc([N+](=O)[O-])c1` (stereo unspecified), the TD50 (usually the 50% point of the dose-response relation for the toxic effect studied) is, setting by setting: (mouse, strain ICR, females, in feed, site: liver, lesion: hepatocellular adenoma, dosed 78 weeks, study length 78 weeks) 545 mg/kg/day (inactive); (mouse, strain ICR, females, in feed, site: lung, lesion: alveolar/bronchiolar adenoma, dosed 78 weeks, study length 78 weeks) 438 mg/kg/day (inactive); (rat, strain Charles River CD (Sprague-Dawley), females, in feed, site: liver, lesion: hepatocellular adenoma, dosed 104 weeks, study length 104 weeks) 157 mg/kg/day (inactive); (rat, strain Charles River CD (Sprague-Dawley), males, in feed, site: liver, lesion: hepatocellular adenoma, dosed 104 weeks, study length 104 weeks) 8240 mg/kg/day (inactive); (rat, strain Charles River CD (Sprague-Dawley), males, in feed, site: liver, lesion: hepatocellular carcinoma, dosed 104 weeks, study length 104 weeks) 405 mg/kg/day (inactive). For the same molecule, the carcinogen call by setting is: (mouse, strain ICR, males, in feed, site: liver, lesion: hepatocellular adenoma, dosed 78 weeks, study length 78 weeks) “negative (inactive)”; (mouse, strain ICR, males, in feed, site: liver, lesion: hepatocellular carcinoma, dosed 78 weeks, study length 78 weeks) “negative (inactive)”; (mouse, strain ICR, males, in feed, site: lung, lesion: alveolar/bronchiolar adenoma, dosed 78 weeks, study length 78 weeks) “negative (inactive)”; (rat, strain Charles River CD (Sprague-Dawley), females, in feed, site: liver, lesion: hepatocellular carcinoma, dosed 104 weeks, study length 104 weeks) “negative (inactive)”.
Regarding `CC1(C)O[C@@H]2C[C@H]3[C@@H]4CCC5=CC(=O)C=C[C@]5(C)[C@@]4(F)[C@@H](O)C[C@]3(C)[C@]2(C(=O)CO)O1`, the TD50 is, setting by setting: (rat, strain Charles River CD (Sprague-Dawley), males, in drinking water, site: liver, lesion: hepatocellular adenoma, dosed 104 weeks, study length 104 weeks) 0.0917 mg/kg/day; (rat, strain Charles River CD (Sprague-Dawley), males, in drinking water, site: liver, lesion: hepatocellular carcinoma, dosed 104 weeks, study length 104 weeks) 0.141 mg/kg/day; (rat, strain Charles River CD (Sprague-Dawley), males, in drinking water, site: liver, lesion: several types, types named in the paper, dosed 104 weeks, study length 104 weeks) 0.053 mg/kg/day.
Regarding `NNC(=O)c1cccnc1`, the carcinogen call is “negative (inactive)” (mouse, strain Swiss albino, females, in drinking water, site: liver, lesion: angioma, dosed 102 weeks, study length 102 weeks); “negative (inactive)” (mouse, strain Swiss albino, females, in drinking water, site: liver, lesion: angiosarcoma, dosed 102 weeks, study length 102 weeks); “negative (inactive)” (mouse, strain Swiss albino, males, in drinking water, site: liver, lesion: angioma, dosed 101 weeks, study length 101 weeks); “negative (inactive)” (mouse, strain Swiss albino, males, in drinking water, site: liver, lesion: angiosarcoma, dosed 101 weeks, study length 101 weeks). For the same molecule, the TD50 by setting is: (mouse, strain Swiss albino, females, in drinking water, site: lung, lesion: adenocarcinoma, dosed 102 weeks, study length 102 weeks) 511 mg/kg/day; (mouse, strain Swiss albino, females, in drinking water, site: lung, lesion: adenoma, dosed 102 weeks, study length 102 weeks) 181 mg/kg/day; (mouse, strain Swiss albino, females, in drinking water, site: lung, lesion: several types, types named in the paper, dosed 102 weeks, study length 102 weeks) 145 mg/kg/day; (mouse, strain Swiss albino, males, in drinking water, site: liver, lesion: hepatoma, dosed 101 weeks, study length 101 weeks) 1410 mg/kg/day (inactive); (mouse, strain Swiss albino, males, in drinking water, site: lung, lesion: adenoma, dosed 101 weeks, study length 101 weeks) 428 mg/kg/day; (mouse, strain Swiss albino, males, in drinking water, site: lung, lesion: several types, types named in the paper, dosed 101 weeks, study length 101 weeks) 528 mg/kg/day.
With `[N-]=[N+]=[N-]`, the TD50 by setting is: (rat, strain Charles River CD (Sprague-Dawley), females, in feed, site: mammary gland, lesion: one or several types, types not named, dosed 78 weeks, study length 104 weeks) 3.01 mg/kg/day; (rat, strain Charles River CD (Sprague-Dawley), females, in feed, site: pituitary gland, lesion: chromophobe adenoma, dosed 78 weeks, study length 104 weeks) 16.1 mg/kg/day (inactive); (rat, strain Fischer 344, females, by gavage, site: any site (literature study), lesion: several types, types named in the paper, dosed 103 weeks, study length 104 weeks) 19.1 mg/kg/day (inactive); (rat, strain Fischer 344, males, by gavage, site: any site (literature study), lesion: several types, types named in the paper, dosed 103 weeks, study length 104 weeks) 8.26 mg/kg/day; (rat, strain Fischer 344, males, by gavage, site: testis, lesion: interstitial-cell adenoma, bilateral + interstitial-cell adenoma, dosed 103 weeks, study length 104 weeks) 3.79 mg/kg/day (inactive). Moreover, the carcinogen call (rat, strain Charles River CD (Sprague-Dawley), males, in feed, site: pituitary gland, lesion: chromophobe adenoma, dosed 78 weeks, study length 104 weeks) was “negative (inactive)”.
Consider `OCN(CO)c1nc(N(CO)CO)nc(N(CO)CO)n1`, for which the TD50 (rat, strain Sprague-Dawley, females, in feed, site: any site (literature study), lesion: several types, types named in the paper, dosed 44 weeks, study length 66 weeks) amounted to 6.82 mg/kg/day; the TD50 (rat, strain Sprague-Dawley, females, in feed, site: kidney/pelvis, lesion: transitional-cell carcinoma, dosed 44 weeks, study length 66 weeks) was 33.6 mg/kg/day; the TD50 (rat, strain Sprague-Dawley, females, in feed, site: mammary gland, lesion: adenocarcinoma, dosed 44 weeks, study length 66 weeks) is 10.2 mg/kg/day; the TD50 (rat, strain Sprague-Dawley, females, in feed, site: mammary gland, lesion: several types, types named in the paper, dosed 44 weeks, study length 66 weeks) is 11.9 mg/kg/day.
In the case of `OB(O)O`, the carcinogen call (mouse, strain B6C3F1, females, in feed, site: any site (literature study), lesion: several types, types named in the paper, dosed 103 weeks, study length 105 weeks) is “negative (inactive)”. Besides, the TD50 is 31000 mg/kg/day (mouse, strain B6C3F1, females, in feed, site: liver, lesion: hepatocellular adenoma + hepatocellular carcinoma + neoplastic nodule, dosed 103 weeks, study length 105 weeks); 4190 mg/kg/day (mouse, strain B6C3F1, females, in feed, site: lung, lesion: alveolar/bronchiolar adenoma + alveolar/bronchiolar carcinoma, dosed 103 weeks, study length 105 weeks); 500 mg/kg/day (mouse, strain B6C3F1, males, in feed, site: any site (literature study), lesion: several types, types named in the paper, dosed 103 weeks, study length 105 weeks); 638 mg/kg/day (mouse, strain B6C3F1, males, in feed, site: liver, lesion: hepatocellular adenoma + hepatocellular carcinoma + neoplastic nodule, dosed 103 weeks, study length 105 weeks); 638 mg/kg/day (inactive) (mouse, strain B6C3F1, males, in feed, site: liver, lesion: hepatocellular adenoma + hepatocellular carcinoma, dosed 103 weeks, study length 105 weeks); 1120 mg/kg/day (mouse, strain B6C3F1, males, in feed, site: liver, lesion: hepatocellular carcinoma, dosed 103 weeks, study length 105 weeks). The TD50 (mouse, strain B6C3F1, males, in feed, site: lung, lesion: alveolar/bronchiolar adenoma + alveolar/bronchiolar carcinoma, dosed 103 weeks, study length 105 weeks) is 38600 mg/kg/day; the TD50 (mouse, strain B6C3F1, males, in feed, site: subcutaneous tissue, lesion: fibrosarcoma + fibroma + neurofibrosarcoma + sarcoma, NOS, dosed 103 weeks, study length 105 weeks) was 706 mg/kg/day; the TD50 (mouse, strain B6C3F1, males, in feed, site: subcutaneous tissue, lesion: fibrosarcoma + neurofibrosarcoma + sarcoma, NOS, dosed 103 weeks, study length 105 weeks) is 1070 mg/kg/day.
As for `C=CC(O)c1ccc2c(c1)OCO2` (stereo unspecified), the TD50 runs as follows: (mouse, strain (B6C3F1 x B6C3 background, brachymorphic) inter se = B6C3F2 br, females, in feed, site: liver, lesion: hepatoma, dosed 52 weeks, study length 69 weeks) 1530 mg/kg/day; (mouse, strain (B6C3F1 x B6C3 background, brachymorphic) inter se = B6C3F2 ph, females, in feed, site: liver, lesion: hepatoma, dosed 52 weeks, study length 69 weeks) 53.3 mg/kg/day; (mouse, strain Charles River CD1, females, in feed, site: liver, lesion: hepatocellular carcinoma, dosed 51 weeks, study length 73 weeks) 68 mg/kg/day; (mouse, strain Charles River CD1, females, in feed, site: liver, lesion: hepatoma, dosed 52 weeks, study length 69 weeks) 49.1 mg/kg/day; (mouse, strain Charles River CD1, females, in feed, site: lung, lesion: adenoma, dosed 52 weeks, study length 69 weeks) 3670 mg/kg/day; (mouse, strain Charles River CD1, females, in feed, site: subcutaneous tissue, lesion: angiosarcoma, dosed 51 weeks, study length 73 weeks) 1550 mg/kg/day. Besides, the TD50 reads like this: (mouse, strain Charles River CD1, males, in feed, site: interscapulum, lesion: angiosarcoma, dosed 56 weeks, study length 69 weeks) 429 mg/kg/day; (mouse, strain Charles River CD1, males, in feed, site: liver, lesion: carcinoma, dosed 56 weeks, study length 69 weeks) 18900 mg/kg/day; (mouse, strain Charles River CD1, males, in feed, site: lung, lesion: adenoma, dosed 56 weeks, study length 69 weeks) 5470 mg/kg/day; (rat, strain Charles River CD (Sprague-Dawley), males, in feed, site: forestomach, lesion: papilloma, dosed 36 weeks, study length 52 weeks) 65.8 mg/kg/day; (rat, strain Charles River CD (Sprague-Dawley), males, in feed, site: forestomach, lesion: papilloma, dosed 43 weeks, study length 69 weeks) 59.8 mg/kg/day; (rat, strain Charles River CD (Sprague-Dawley), males, in feed, site: liver, lesion: carcinoma, dosed 36 weeks, study length 52 weeks) 12.1 mg/kg/day. Further, the TD50 by setting is: (rat, strain Charles River CD (Sprague-Dawley), males, in feed, site: liver, lesion: carcinoma, dosed 43 weeks, study length 69 weeks) 16.7 mg/kg/day; (rat, strain Charles River CD (Sprague-Dawley), males, in feed, site: liver, lesion: hepatocellular carcinoma, dosed 58 weeks, study length 95 weeks) 47.8 mg/kg/day.
`CCCCNN`: the TD50 is, setting by setting: (mouse, strain Swiss albino, females, in drinking water, site: lung, lesion: adenocarcinoma, dosed 119 weeks, study length 119 weeks) 50.6 mg/kg/day; (mouse, strain Swiss albino, females, in drinking water, site: lung, lesion: adenoma, dosed 119 weeks, study length 119 weeks) 19.3 mg/kg/day; (mouse, strain Swiss albino, females, in drinking water, site: lung, lesion: several types, types named in the paper, dosed 119 weeks, study length 119 weeks) 18.4 mg/kg/day; (mouse, strain Swiss albino, males, in drinking water, site: lung, lesion: adenoma, dosed 100 weeks, study length 100 weeks) 8.4 mg/kg/day; (mouse, strain Swiss albino, males, in drinking water, site: lung, lesion: several types, types named in the paper, dosed 100 weeks, study length 100 weeks) 9.03 mg/kg/day.
`CC1=C(/C=C/C(C)=C/C=C/C(C)=C/C(=O)O)C(C)(C)CCC1`: where the note is “rat, strain Sprague-Dawley, females, i.p., site: any site (literature study), lesion: malignant tumor, dosed 104 weeks, study length 104 weeks”, the carcinogen call is “negative (inactive)”. Further, the TD50 (rat, strain Sprague-Dawley, males, i.p., site: any site (literature study), lesion: malignant tumor, dosed 104 weeks, study length 104 weeks) was 188 mg/kg/day (inactive).
For the molecule `COC(=O)C1=C(C)NC(C)=C(C(=O)OCC(C)(C)CN(C)Cc2ccccc2)C1c1cc([N+](=O)[O-])ccc1F` (stereo unspecified), the carcinogen call runs as follows: (rat, strain Fischer 344, females, in feed, site: liver, lesion: one or several types, types not named, dosed 104 weeks, study length 104 weeks) “negative (inactive)”; (rat, strain Fischer 344, males, in feed, site: all sites, lesion: mononuclear-cell leukemia, dosed 104 weeks, study length 104 weeks) “negative (inactive)”; (rat, strain Fischer 344, males, in feed, site: liver, lesion: hepatocellular adenoma, dosed 104 weeks, study length 104 weeks) “negative (inactive)”.
